Assays:
Jurkat cells [1] = experiment: DNA fragmentation analysis in Jurkat cells; type: cell-based, human; details: 50 μM compound or 1 μM staurosporin, 8 hr
Jurkat cells [2] = experiment: Caspase-3 activation in Jurkat cells (immunoblot); type: cell-based, human; details: 50 μM compound or 1 μM staurosporin, 6 hr
Procedure: (§1) (C) DNA fragmentation analysis. […] Cell viability assay.
(§2) Compounds were then tested for their ability to induce apoptosis in live cells. The ability of the compounds to activate caspase-3 in a Jurkat cell line was first assayed. […] This same pattern was seen when we assayed for the cleavage of poly (ADP-ribose) polymerase (PARP), a cellular substrate of caspases-3 and -7 (see, D. W. Nicholson, Cell Death Differ 6, 1028-42 (1999)). Upon apoptosis, PAR-P is cleaved from a 116 kD to an 85 kD protein.

Jurkat cells [3] = experiment: PARP cleavage in Jurkat cells (immunoblot); type: cell-based, human; details: 50 μM compound or 1 μM staurosporin, 6 hr
Procedure: as §1, §2

caspase-3 activation = experiment: Caspase-3 activation by gel filtration fractions of Apaf-1 complexes; type: biochemical; details: 20 μM compound, 0.15 μM cyto c; for extent of caspase-3 activation: vehicle alone 0.36
Procedure: FIG. 7 depicts activity of compounds 1-5 at low cyto c concentrations in a purified system. Apaf-1 was incubated with vehicle, cyto c, or cyto c plus 20 μM compound as indicated, and then separated on a Superose 6 gel filtration column. Individual fractions were assayed for relative Apaf-1 concentrations by capture ELISA (bar graph), or the ability to activate procaspase-3 processing in lysates (line graph). The percent of Apaf-1 in apoptosomes was determined by dividing the amount of Apaf-1 in fractions 8-11 by the total amount of Apaf-1. The extent of caspase-3 activation (given in arbitrary units) corresponds to the area under the curve for fractions 8-11 in each panel. Black bars represent fractions used for calculations.
As the compounds appeared to be acting prior to caspase activation, their effect on the oligomerization of Apaf-1 was assessed (K. Cain, D. G. Brown, C. Langlais, G. M. Cohen, J Biol Chem 274, 22686-92 (1999); K. Cain et al., J Biol Chem 275, 6067-70 (2000)). By gel filtration, Apaf-1 normally runs as a monomer of ˜140 kD (FIG. 7) (see, A. Saleh, S. M. Srinivasula, S. Acharya, R. Fishel, E. S. Alnemri, J Biol Chem 274, 17941-5 (1999)). Incubation of Apaf-1 with 5 μM cyto c induces over 90% of the Apaf-1 to form large complexes of ˜700 kD, whereas incubation with 0.15 μM cyto c concentration allowed only 22% of the Apaf-1 to assemble into complexes. However, the addition of 20 μM compound 2 or 5 at the lower cyto c concentration caused the formation of two higher molecular weight complexes: a major peak that runs at the same retention time as the complex seen at 5 μM cyto c (˜700 kD), and a minor peak that elutes in the void volume. […] To determine if the Apaf-1 complexes induced by the compounds at the lower cyto c concentration are competent for caspase activation, procaspase-9, procaspase-3, and dATP were added to fractions from the gel filtration column and assayed for caspase-3 activation. Fractions from samples that had been incubated with 5 μM cyto c strongly activated caspase-3 processing (FIG. 7, panel ii, line graph), with the maximal caspase activation corresponding to the fractions that contained the apoptosome complex. On the other hand, no fractions form the sample without cyto c activated capsase-3 processing (panel i). There was a small but measurable amount of capsase-3 activation when the cyto c concentration was reduced to 0.15 μM (panel iii). However, the extent of caspase-3 activation at the reduced level of cyto c increased approximately 4-fold when either compound 2 or 5 was added to the reaction (from 0.36 arbitrary units for the vehicle alone to 1.57 and 1.4 for compounds 2 and 5, respectively, panels iv and vi). […]

[4] = test system: caspase-3 (DEVDase activity); experiment: DEVDase fluorescence screen in HeLa cell S-100 cytoplasmic extracts; type: biochemical; details: in vitro fluorescence assay, HeLa S-100 extracts with cyto c
Excerpt: In order to identify compounds that modulate apoptosis, a chemical genetics approach was utilized to screen for molecules that target components of the apoptosis pathway (see, T. U. Mayer et al., Science 286, 971-4 (1999)). An in vitro screen using cytoplasmic extracts was adapted for apoptosis to a 96-well format and used to test an in-house library of ˜3500 compounds (see, T. Fernandes-Alnemri et al, Proc Natl Acad Sci USA 93, 7464-9 (1996); X. Liu, C. N. Kim, J. Yang, R. Jemmerson, X. Wang, Cell 86, 147-57 (1996); L. M. Leoni et al., Proc Natl Acad Sci USA 95, 9567-71 (1998)). Briefly, individual compounds were added to HeLa cell S-100 cytoplasmic extracts at a final concentration of 1 mM and apoptosis was induced by adding bovine heart cyto c (HeLa cell cytoplasmic extracts were prepared according to previously published reports (see, P. Li et al., Cell 91, 479-89 (1997)). Compounds were distributed into 96-well microtiter plates at a final concentration of 1 mM. To each well was added 250 μg of total protein from cytoplasmic extracts in HEB buffer (50 mM Hepes pH 7.4, 50 mM KCl, 5 mM EGTA, 2 mM MgCl), with 2 mM DTT, 2 μM cyto c, and 0.5 μM DEVD-AFC substrate in a total of 150 μL. Plates were incubated at 37° C. and fluorescence was read in a LJL Biosystems plate reader at 10 min intervals). Activation of caspase-3 was monitored by cleavage of a fluorogenic substrate, Asp-Glu-Val-Asp-7-amino-4-trifluoromethylcoumarin (DEVDase activity). As designed, the DEVDase fluorescence screen encompasses the release of cyto c from the mitochondria to the activation of caspase-3. Possible targets include cyto c, Apaf-1, caspase-9, caspase-3, inhibitors of apoptosis (IAPs), and possible unidentified components present in the cytosol.

Compound	DNA fragmentation (Jurkat cells [1])	processing of procaspase-3 (Jurkat cells [2])	cleavage of PARP (Jurkat cells [3])	increase in caspase-3 activation over vehicle alone (caspase-3 activation)	extent of caspase-3 activation (caspase-3 activation) [arbitrary units]	activation of DEVDase activity [4]
O=C(NCc1ccc(Cl)c(Cl)c1)OC1CCc2ccccc21 (stereo not drawn) [Compound 5]	induced DNA fragmentation	significant processing	limited processing	approximately 4 fold	1.4	strongly activated DEVDase activity
O=C1C(=O)N(Cc2ccc(Cl)c(Cl)c2)c2ccccc21 [Compound 2]	induced DNA fragmentation	significant processing	complete cleavage	approximately 4 fold	1.57	strongly activated DEVDase activity
O=C(NCc1ccc(Cl)c(Cl)c1)OC1CCc2ccccc21 (stereo not drawn) [Compound 4]	less pronounced effect	less processing				no activity
